This is an account of results in PMC3248963 (Bioorganic & medicinal chemistry letters, 2011).

One may read the EC50 as the concentration at which the effect is half-maximal. High values mean a need for much substance, low ones an effect from little substance. As a reminder, the IC50 is the concentration at which inhibition is half-maximal. A high value points to weaker potency in that assay.

Where no end group is shown, it is not given here.

One series relates to GLP1 receptor. The following applies: cited from earlier work.
In series [1] the test system is dipeptidyl peptidase 4 (DPP4). The following applies: cited from earlier work.
The next series addresses M397L GLP1 receptor (Homo sapiens, UniProt P43220, M397L). Put plainly: intracellular cAMP response assay, M397L mutant receptor. The class given is cell-based.
Series [2] addresses GLP1 receptor (CHO-GLP1R cell membranes) (Homo sapiens, UniProt P43220). Description: photoaffinity labeling of wild type receptor by radioiodinated Bpa-NRTFD.
For series [3], the target named is human GLP1 receptor (CHO-GLP1R cells) (Homo sapiens, UniProt P43220). Description: intracellular cAMP response assay, wild type receptor. It counts as cell-based. The note with it: EC50 values.
Chain of human GLP1 receptor (CHO-GLP1R cells) (P43220 24-463): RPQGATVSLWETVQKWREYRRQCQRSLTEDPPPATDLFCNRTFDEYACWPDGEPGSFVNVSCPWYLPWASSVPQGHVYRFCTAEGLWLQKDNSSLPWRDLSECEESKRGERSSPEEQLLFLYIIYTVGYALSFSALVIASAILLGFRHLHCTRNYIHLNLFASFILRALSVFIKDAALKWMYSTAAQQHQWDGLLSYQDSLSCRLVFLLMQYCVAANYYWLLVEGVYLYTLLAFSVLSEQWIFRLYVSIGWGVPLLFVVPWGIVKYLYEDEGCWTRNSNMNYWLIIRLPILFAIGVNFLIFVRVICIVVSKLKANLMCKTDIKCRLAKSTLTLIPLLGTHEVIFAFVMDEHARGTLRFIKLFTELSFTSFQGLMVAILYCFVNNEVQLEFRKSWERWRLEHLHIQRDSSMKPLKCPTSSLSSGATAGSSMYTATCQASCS

Chain of M397L GLP1 receptor (P43220 24-463 M397L): as the sequence (P43220 24-463) above, with M374L counted along it
Chain of GLP1 receptor (CHO-GLP1R cell membranes) (P43220 24-463): as the sequence (P43220 24-463) above

In the case of `CC[C@H](C)[C@H](NC(=O)[C@H](Cc1ccccc1)NC(=O)[C@H](CCC(=O)O)NC(=O)[C@H](CCCCN)NC(=O)[C@H](C)NC(=O)[C@H](C)NC(=O)[C@H](CCC(N)=O)NC(=O)CNC(=O)[C@H](CCC(=O)O)NC(=O)[C@H](CC(C)C)NC(=O)[C@H](Cc1ccc(O)cc1)NC(=O)[C@H](CO)NC(=O)[C@H](CO)NC(=O)[C@@H](NC(=O)[C@H](CC(=O)O)NC(=O)[C@H](CO)NC(=O)[C@@H](NC(=O)[C@H](Cc1ccccc1)NC(=O)[C@@H](NC(=O)CNC(=O)[C@H](CCC(=O)O)NC(=O)[C@H](C)NC(=O)[C@@H](N)Cc1c[nH]cn1)[C@@H](C)O)[C@@H](C)O)C(C)C)C(=O)N[C@@H](C)C(=O)N[C@@H](Cc1c[nH]c2ccccc12)C(=O)N[C@@H](CC(C)C)C(=O)N[C@H](C(=O)N[C@@H](CCCCN)C(=O)NCC(=O)N[C@@H](CCCNC(=N)N)C(N)=O)C(C)C` [GLP1], the “blockade of agonist action by high affinity peptide antagonist” value in the series with GLP1 receptor was “competitively blocked”. Further, the “degradation by DPP4” value in series [1] is recorded as “rapidly degraded”.
With NRTFD [NRTFD], the results for the EC50 (on M397L GLP1 receptor; in series [3]) were 2200 ± 800 nM and 1600 ± 500 nM, respectively. The molecule further gave an IC50 in series [2] of 3100 ± 800 nM.
